Test results as given in US10125121B2, “FYN kinase inhibitors” (ROTTAPHARM BIOTECH S.R.L., priority 2015, dated 2018).

How the values were obtained:
[1] = tested on: NF-kB activation in JB6 CI 41-5a (P+) cells; assay: Gene reporter (GR) assay, NF-kB luciferase after TNFα stimulation; type: cell-based, murine; settings: Mus musculus; 1 h pre-treatment, 2 ng/ml TNFα for 4 h; read-out: IC50(nM) GR Inhibition
Source text: To determine if the compounds of the invention were active also in a cellular model, a gene reporter assay was established in a cell line (JB6 CI 41-5a (P+)) know to activate Fyn kinase via an inflammatory stimuli (TNFα). GR assay measures the activation of the nuclear transcription factor NF-kB, situated down-stream the Fyn activation pathway. Products active in this analysis has to penetrate in the cell and inhibit the activation pathway of NF-kB.
The murine epithelial cell line JB6 CI 41-5a (P+) (ATCC® Cat. # CRL-2010) was stably transfected with the pGL4.32[luc2P/NFkB-RE/Hygro] vector (Promega). Clonal selection was achieved by limiting dilution in MEM (+Earle's BSS+1.5 g/l sodium bicarbonate+0.1 mM NEAA)+GlutaMAX™-I, +1 mM sodium pyruvate, +5% FBS+80 μg/ml Hygromycin B. The clones were tested for their response to TNFα stimulus. The obtained transfected cells (JB6(P+) NFkB-RE-luc2P T3-C10) contained a firefly luciferase gene (luc2P) under the control of minimal TATA promoter with multiple Nuclear Factor-kB response elements (NFkB-REs). These NFkB-REs are DNA binding sequences for the NF-kB transcription factor.
JB6(P+) NFkB-RE-luc2P T3-C10 cells were used for the analysis of NF-kB activity modulation, after TNFα stimulation, by Fyn-inhibitors (Hwang et al.; Biochem. Pharmacol. 2009, 77 (7):1213-22).
6000 cells/well were plated in a 96× well plate. After 24 h new medium without antibiotics was given. After further 24 h the cells were pre-treated with the different compounds for 1 h and then stimulated with 2 ng/ml TNFα for 4 h. In each experiments two positive standards were always used, and each tested condition was analyzed in quadruplicate.
The luciferase analysis was performed with ONE-Glo™+ToxLuciferase Reporter and Cell Viability Assay kit (Promega). This assay combined luciferase assay chemistry with a cell viability marker to better understand reporter gene expression in the context of cell health. The assay uses a two-step process. The first part of the assay was a non-lytic fluorescence assay (CellTiter-Fluor™ Cell Viability Assay) that measured the relative number of live cells in a culture population, as it measures a conserved and constitutive protease activity within live cells. The live-cell protease activity was restricted to intact viable cells and was measured using a fluorogenic, cell-permeant peptide substrate (glycyl-phenylalanyl-aminofluorocoumarin; GF-AFC). The generated fluorescent signal, proportional to the number of living cells, was measured with EnVision microplate reader (PerkinElmer) using an excitation wavelength of 400 nm and emission wavelength of 500 nm.
The second part of the assay uses the ONE-Glo™ Luciferase Assay System to quantify firefly luciferase reporter gene expression. The ONE-Glo™ Assay contained a fluoro-luciferin substrate, more tolerant to sample components than standard luciferase assay reagents. Luminescence was measured with EnVision microplate reader (PerkinElmer).
Compounds of Formula (I) were tested for their capacity to penetrate into the cell and inhibit the activation pathway of NF-kB.

[2] = target: active FYN (human recombinant, 62.7 kDa) (Homo sapiens, UniProt P06241); assay: In vitro kinase assay (Z′-LYTE FRET); type: biochemical; settings: read-out: IC50(nM) FYN INHIBITION
Description: Assays to determine the kinase inhibitory activity of compounds were performed using an automatic liquid handling device (Microlab STAR Hamilton) and Z′-LYTE™ Kinase Assay Platform, a Fluorescence Resonance Energy Transfer (FRET)-based assay platform compatible with high-throughput screening (HTS) applications. The assay employs a fluorescence-based, coupled-enzyme format and utilizes the differential sensitivity of phosphorylated and non-phosphorylated peptides to proteolytic cleavage.
All reagents were diluted in reaction buffer and the kinase reaction was carried out in a total volume of 10 μl, for 60 minutes at 25° C. The 0% Phosphorylation (i.e. no ATP) and 100% Phosphorylation (i.e. synthetically phosphorylated peptide supplied) Assay Controls, included in each plate, allowed to calculate the percent phosphorylation achieved in the specific reaction well. The 0% Inhibition and 0% Phosphorylation (i.e. 100% Inhibition) Controls define the dynamic range in the screen. At the end of incubation, a secondary reaction (the Development Reaction) started by adding 5 μl of Development Reagent, containing a site-specific protease that recognizes and cleaves non-phosphorylated peptides, and was interrupted after 60 minutes with 5 μl/sample of Stop Reagent.
The compounds were tested in a range of concentrations 10^−6-10^−9 M.
Results are expressed as percentage of inhibition and the IC50 values were calculated by non-linear curve fitting using GraphPad™ Prism software.

Chain of active FYN (human recombinant, 62.7 kDa) (P06241 whole entry): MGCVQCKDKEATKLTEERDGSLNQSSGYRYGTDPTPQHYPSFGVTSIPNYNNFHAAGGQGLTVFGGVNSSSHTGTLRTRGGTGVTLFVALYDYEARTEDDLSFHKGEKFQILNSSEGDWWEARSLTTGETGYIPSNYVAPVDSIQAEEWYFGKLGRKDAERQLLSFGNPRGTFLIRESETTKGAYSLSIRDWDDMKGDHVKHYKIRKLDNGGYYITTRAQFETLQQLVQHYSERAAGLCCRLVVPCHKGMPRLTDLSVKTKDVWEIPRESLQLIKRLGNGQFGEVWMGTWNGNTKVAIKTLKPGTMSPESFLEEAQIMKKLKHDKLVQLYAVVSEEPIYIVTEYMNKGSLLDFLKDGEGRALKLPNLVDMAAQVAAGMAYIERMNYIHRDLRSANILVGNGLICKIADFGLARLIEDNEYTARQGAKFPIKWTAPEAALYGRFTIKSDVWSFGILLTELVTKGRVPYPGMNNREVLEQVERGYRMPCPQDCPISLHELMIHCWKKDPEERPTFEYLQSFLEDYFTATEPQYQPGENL

| IC50 [1] [nM] | IC50 [2] [nM] | SMILES |
| --- | --- | --- |
| > 2000 | 30 | Cc1cc(CN2CCN(c3nccc(Nc4cc(C5CC5)[nH]n4)n3)CC2)ccc1NC(=O)c1ccccc1F [Compound 17, N-(4-((4-(4-((5-cyclopropyl-1H-pyrazol-3-yl)amino)pyrimidin-2-yl)piperazin-1-yl)methyl)-2-methylphenyl)-2-fluorobenzamide] |
| 1370 | 94 | CCc1cc(CN2CCN(c3nc(C)cc(Nc4cc(C5CC5)[nH]n4)n3)CC2)ccc1NC(=O)c1ccccc1F [Compound 18, N-(4-((4-(4-((5-cyclopropyl-1H-pyrazol-3-yl)amino)-6-methylpyrimidin-2-yl)piperazin-1-yl)methyl)-2-ethylphenyl)-2-fluorobenzamide] |
| 1340 | 27 | O=C(Nc1ccc(CN2CCN(c3nccc(Nc4cc(C5CC5)[nH]n4)n3)CC2)cc1)c1cccnc1C(F)(F)F [Compound 27, N-(4-((4-(4-((5-cyclopropyl-1H-pyrazol-3-yl)amino)pyrimidin-2-yl)piperazin-1-yl)methyl)phenyl)-2-(trifluoromethyl)-nicotinamide] |
| > 2000 | 8 | O=C(Nc1ccc(CN2CCN(c3nccc(Nc4cc(C5CC5)[nH]n4)n3)CC2)cc1)c1nccnc1C(F)(F)F [Compound 36, N-(4-((4-(4-((5-cyclopropyl-1H-pyrazol-3-yl)amino)pyrimidin-2-yl)piperazin-1-yl)methyl)phenyl)-3-(trifluoromethyl)-pyrazine-2-carboxamide] |
| 603 | 16 | O=C(Nc1ccc(CN2CCN(c3nccc(Nc4cc(C5CC5)[nH]n4)n3)CC2)cc1)c1ccc(F)cc1C(F)(F)F [Compound 14, N-(4-((4-(4-((5-cyclopropyl-1H-pyrazol-3-yl)amino)pyrimidin-2-yl)piperazin-1-yl)methyl)phenyl)-4-fluoro-2-(trifluoromethyl)benzamide] |
| 1930 | 103 | Cc1nocc1C(=O)Nc1ccc(CN2CCN(c3nccc(Nc4cc(C5CC5)[nH]n4)n3)CC2)cc1 [Compound 23, N-(4-((4-(4-((5-cyclopropyl-1H-pyrazol-3-yl)amino)pyrimidin-2-yl)piperazin-1-yl)methyl)phenyl)-3-methylisoxazole-4-carboxamide] |
| 788 | 17 | Cc1ccccc1C(=O)Nc1ccc(CN2CCN(c3nccc(Nc4cc(C5CC5)[nH]n4)n3)CC2)cc1 [Compound 4, N-(4-((4-(4-((5-cyclopropyl-1H-pyrazol-3-yl)amino)pyrimidin-2-yl)piperazin-1-yl)methyl)phenyl)-2-methylbenzamide] |
| 766 | 39 | O=C(Nc1ccc(CN2CCN(c3nccc(Nc4cc(C5CC5)[nH]n4)n3)CC2)cc1)c1ccccc1OC(F)(F)F [Compound 8, N-(4-((4-(4-((5-cyclopropyl-1H-pyrazol-3-yl)amino)pyrimidin-2-yl)piperazin-1-yl)methyl)phenyl)-2-(trifluoromethoxy)benzamide] |
| 1050 | 27 | O=C(Nc1ccc(CN2CCN(c3nccc(Nc4cc(C5CC5)[nH]n4)n3)CC2)nc1)c1ccccc1C(F)(F)F [Compound 43, N-(6-((4-(4-((5-cyclopropyl-1H-pyrazol-3-yl)amino)pyrimidin-2-yl)piperazin-1-yl)methyl)pyridin-3-yl)-2-(trifluoromethyl)benzamide] |
| 854 | 42 | Cc1nc(C(=O)Nc2ccc(CN3CCN(c4nccc(Nc5cc(C6CC6)[nH]n5)n4)CC3)cc2)c(C(F)(F)F)o1 [Compound 21, N-(4-((4-(4-((5-cyclopropyl-1H-pyrazol-3-yl)amino)pyrimidin-2-yl)piperazin-1-yl)methyl)phenyl)-2-methyl-5-(trifluoromethyl)oxazole-4-carboxamide] |
| 493 | 23 | O=C(Nc1ccc(CN2CCN(c3nccc(Nc4cc(C5CC5)[nH]n4)n3)CC2)cc1)c1c(F)cccc1C(F)(F)F [Compound 13, N-(4-((4-(4-((5-cyclopropyl-1H-pyrazol-3-yl)amino)pyrimidin-2-yl)piperazin-1-yl)methyl)phenyl)-2-fluoro-6-(trifluoromethyl)benzamide] |
| > 2000 | 4 | O=C(Nc1cnc(CN2CCN(c3nccc(Nc4cc(C5CC5)[nH]n4)n3)CC2)cn1)c1ccccc1C(F)(F)F [Compound 41, N-(5-((4-(4-((5-cyclopropyl-1H-pyrazol-3-yl)amino)pyrimidin-2-yl)piperazin-1-yl)methyl)pyrazin-2-yl)-2-(trifluoromethyl)benzamide] |
| 1000 | 17 | O=C(Nc1ccc(CN2CCN(c3nccc(Nc4cc(C5CC5)[nH]n4)n3)CC2)cc1)c1ccncc1C(F)(F)F [Compound 32, N-(4-((4-(4-((5-cyclopropyl-1H-pyrazol-3-yl)amino)pyrimidin-2-yl)piperazin-1-yl)methyl)phenyl)-3-(trifluoromethyl)-isonicotinamide] |
| 430 | 29 | O=C(Nc1ccc(CN2CCN(c3nccc(Nc4cc(C5CC5)[nH]n4)n3)CC2)cc1)c1cccc(F)c1C(F)(F)F [Compound 12, N-(4-((4-(4-((5-cyclopropyl-1H-pyrazol-3-yl)amino)pyrimidin-2-yl)piperazin-1-yl)methyl)phenyl)-3-fluoro-2-(trifluoromethyl)benzamide] |
| – | 16 | O=C(Nc1ccc(CN2CCN(c3nccc(Nc4cc(C5CC5)[nH]n4)n3)CC2)cc1)c1ccc(F)cc1F [Compound 11, N-(4-((4-(4-((5-cyclopropyl-1H-pyrazol-3-yl)amino)pyrimidin-2-yl)piperazin-1-yl)methyl)phenyl)-2,4-difluoro-Benzamide] |
| – | 105 | Cc1cccnc1C(=O)Nc1ccc(CN2CCN(c3nccc(Nc4cc(C5CC5)[nH]n4)n3)CC2)cc1 [Compound 25, N-(4-((4-(4-((5-cyclopropyl-1H-pyrazol-3-yl)amino)pyrimidin-2-yl)piperazin-1-yl)methyl)phenyl)-3-methyl-picolinamide] |
| 973 | 8 | O=C(Nc1ccc(CN2CCN(c3nccc(Nc4cc(C5CC5)[nH]n4)n3)CC2)cc1)c1cnccc1C(F)(F)F [Compound 29, N-(4-((4-(4-((5-cyclopropyl-1H-pyrazol-3-yl)amino)pyrimidin-2-yl)piperazin-1-yl)methyl)phenyl)-4-(trifluoromethyl)-nicotinamide] |
| – | 282 | O=C(Nc1ccc(CN2CCN(c3nccc(Nc4cc(C5CC5)[nH]n4)n3)CC2)cc1)c1cnccn1 [Compound 35, N-(4-((4-(4-((5-cyclopropyl-1H-pyrazol-3-yl)amino)pyrimidin-2-yl)piperazin-1-yl)methyl)phenyl)pyrazine-2-carboxamide] |
| – | 41 | Cc1cc(Nc2ccnc(N3CCN(Cc4ccc(NC(=O)c5ccccc5C(F)(F)F)cc4)CC3)n2)[nH]n1 [Compound 47, N-(4-((4-(4-((3-methyl-1H-pyrazol-5-yl)amino)pyrimidin-2-yl)piperazin-1-yl)methyl)phenyl)-2-(trifluoromethyl)benzamide] |
| – | 1450 | Cn1ccnc1C(=O)Nc1ccc(CN2CCN(c3nccc(Nc4cc(C5CC5)[nH]n4)n3)CC2)cc1 [Compound 34, N-(4-((4-(4-((5-cyclopropyl-1H-pyrazol-3-yl)amino)pyrimidin-2-yl)piperazin-1-yl)methyl)phenyl)-1-methyl-1H-imidazole-2-carboxamide] |
